Reference: patent US11396517B1, “Exo-aza spiro inhibitors of menin-MLL interaction” (Janssen Pharmaceutica NV, priority 2017, dated 2022)
Like-named read-outs stand apart in the source and are kept apart here.

Columns and labels:
MOLM14 = assay: Proliferation assay B (spheroid assay) MOLM14; format: cell-based, human; settings: MOLM14 cells, confluence at day 8, absolute IC50, read-out: (3b) Spheroid assay MOLM14 (IC50(μM)) Assay B
How it was run: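 Leukemia cells grown as spheroids in ultra-low-attachment round-bottom wells with compound at 0.3% DMSO for 8 d at 37 °C. Confluence imaged at day 8 as spheroid size, normalized between DMSO and 1 μM staurosporine controls; absolute IC50 from sigmoidal fit with bounds fixed at 0 and 100%.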

MV-4-11 [1] = assay: Proliferation assay B (spheroid assay) MV-4-11; format: cell-based, human; settings: Homo sapiens, MV4-11, 192 h, MV-4-11 cells, confluence at day 8, absolute IC50; read-out: (3b) Spheroid assay MV-4--11 (IC50(μM)) Assay B
Experimental: 3b) Proliferation Assay B
(§1) The anti-proliferative effect of menin/MLL protein/protein interaction inhibitor test compounds was assessed in human leukemia cell lines. The cell lines MV-4-11 and MOLM14 harbor MILL translocations and express the MILL fusion proteins MLL-AF4 and MLL-AF9, respectively, as well as the wildtype protein from the second allele. […] K562 was used as a control cell line containing two MLL wildtype alleles in order to exclude compounds that display general cytotoxic effects.
(§2) MV-4-11 and MOLM14 were cultured in RPMI-1640 (Sigma Aldrich) supplemented with 10% fetal bovine serum (HyClone), 2 mM L-glutamine (Sigma Aldrich) and 50 μg/ml gentamycin (Gibco). K562 were propagated in RPMI-1640 (Sigma Aldrich) supplemented with 20% fetal bovine serum (HyClone), 2 mM L-glutamine (Sigma Aldrich) and 50 μg/ml gentamycin (Gibco).
(§3) In order to assess the anti-proliferative effects, 1,500 MV-4-11, 300 MOLM14 cells or 750 K562 cells were seeded in 200 μl media per well in 96-well round bottom, ultra-low attachment plates (Costar, catalogue number 7007). Cell seeding numbers were chosen based on growth curves to ensure linear growth throughout the experiment. Test compounds were added at different concentrations and the DMSO content was normalized to 0.3%. Cells were incubated for 8 d at 37° C. and 5% CO2. Spheroid like growth was measured in real-time by live-cell imaging (IncuCyteZOOM, Essenbio, 4× objective) acquiring images at day 8. Confluence (%) as a measure of spheroid size was determined using an integrated analysis tool.
In order to determine the effect of the test compounds over time, the confluence in each well as a measure of spheroid size, was calculated. Confluence […] at the beginning of the experiment (t=0) was used as baseline for the calculation.
Absolute IC50 values were calculated as percent change in confluence as follows:
LC=Low Control: cells treated with 1 μM of the cytotoxic agent staurosporin
HC=High Control: Mean confluence (%) (DMSO treated cells) % Effect=100−(100*(Sample−LC)/(HC−LC))
To determine the IC50 a curve is fitted to the plot of % Effect vs Log 10 compound concentration using a sigmoidal fit with a variable slope and fixing the maximum to 100% and the minimum to 0%.

menin = target: T1, menin (Homo sapiens, UniProt O00255, T541A); assay: Menin/MLL homogenous time-resolved fluorescence (HTRF) assay; format: binding
T1 construct: Menin (a.a. 1-610-6×his tag)
T1 sequence (O00255 with tags, fused parts or gaps T541A): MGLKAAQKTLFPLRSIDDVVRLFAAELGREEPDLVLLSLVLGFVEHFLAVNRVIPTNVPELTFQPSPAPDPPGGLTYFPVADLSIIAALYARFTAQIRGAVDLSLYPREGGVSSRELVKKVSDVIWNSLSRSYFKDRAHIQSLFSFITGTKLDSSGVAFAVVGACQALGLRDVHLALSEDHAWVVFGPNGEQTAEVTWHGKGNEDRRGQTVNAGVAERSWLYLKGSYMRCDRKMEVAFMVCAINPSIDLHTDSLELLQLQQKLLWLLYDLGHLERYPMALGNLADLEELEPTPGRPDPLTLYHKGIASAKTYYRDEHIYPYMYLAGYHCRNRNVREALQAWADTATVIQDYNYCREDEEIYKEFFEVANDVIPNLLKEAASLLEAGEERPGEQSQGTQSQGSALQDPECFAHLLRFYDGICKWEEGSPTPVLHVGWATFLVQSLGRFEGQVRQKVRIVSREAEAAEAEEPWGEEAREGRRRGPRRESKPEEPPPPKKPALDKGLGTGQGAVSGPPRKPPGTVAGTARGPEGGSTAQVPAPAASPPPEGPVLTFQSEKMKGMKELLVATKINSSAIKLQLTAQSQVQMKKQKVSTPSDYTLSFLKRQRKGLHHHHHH
How it was run: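 Terbium-labeled menin (aa 1-610, His-tagged; […]) preincubated 5 min with compound, then 75 nM FITC-MBM1 peptide for 15 min, ambient, Tris pH 7.5, 0.5% DMSO. HTRF 520/490 ratio; 11-point 3-fold titration; IC50 from % inhibition fit.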

MV-4-11 [2] = assay: Proliferation assay A (spheroid assay) MV-4-11; format: cell-based, human; settings: MV-4-11 cells, 8 d, AUC of confluence against time, absolute IC50, read-out: (3a) Spheroid assay MV-4-11 (IC50(μM)) Assay A
Experimental: 3a) Proliferation Assay A
as §1, §2
as §3, with “MOLM14” for “MOLM14 cells”, “monitored” for “measured”, “one image every four hours for 8 d.” for “images at day 8.”
In order to determine the cumulative effect of the test compounds over time, the area under the curve (AUC) in a plot of confluence against time was calculated. Confluence at the beginning of the experiment (t=0) was used as baseline for the AUC calculation.
Absolute IC50 values were calculated according to the following procedure: % Control=(AUC sample/AUC control)*100
AUC control mean AUC of control values (cells without compound/DMSO as vehicle control)
A non-linear curve fit was applied using the least squares (ordinary) fit method to the plot of % control versus compound concentration. Based on this, the absolute IC50 value (half maximal inhibitory concentration of the test compound causing an anti-proliferative effect of 50% relative to the vehicle control) was calculated.

[3] = location 2, read-out: (2) location 2 Menin HTRF assay (IC50 (nM))

Row | IC50 (menin; [3]) | IC50 (MV-4-11 [2]; Homo sapiens, MV4-11, 192 h) | Structure (SMILES) | also measured
1 | 4.2 nM | – | FC(F)(F)Cc1cc2c(N3CCC4(CC(Nc5ccc6cnoc6c5)C4)C3)ncnc2s1 (mixture of isomers) [Compound 315] | IC50 (MOLM14; Homo sapiens, MOLM-14, 192 h): 3.41 µM; IC50 (MV-4-11 [1]): 1.22 µM
2 | 50.3 nM | 0.84 µM | COc1cc(NC2CC3(CCN(c4ncnc5sc(CC(F)(F)F)cc45)C3)C2)ccn1 (mixture of isomers) [Compound 341] | IC50 (MOLM14; Homo sapiens, MOLM-14, 192 h): 3.03 µM
3 | 8.1 nM | 0.6 µM | CNS(=O)(=O)c1ccc(NC2CC3(CCN(c4ncnc5sc(CC(F)(F)F)cc45)C3)C2)cc1 (single isomer, unassigned) [Compound 318] | IC50 (MOLM14; Homo sapiens, MOLM-14, 192 h): 3.07 µM
4 | 26.4 nM | 3.66 µM | O=c1[nH]c2ccc(NC3CC4(CCN(c5ncnc6sc(CC(F)(F)F)cc56)C4)C3)cc2o1 (single isomer, unassigned) [Compound 323] | –
5 | 17.8 nM | 1.8 µM | CNc1nc(N2CCC3(CC(Nc4ccc5oc(=O)[nH]c5c4)C3)C2)c2cc(CC(F)(F)F)sc2n1 (mixture of isomers) [Compound 396] | –
6 | 20.1 nM | 0.91 µM | FC(F)(F)Cc1cc2c(N3CCC4(CC(Nc5ccc(-c6cn[nH]c6)cc5)C4)C3)ncnc2s1 (mixture of isomers) [Compound 326] | –
7 | 8.4 nM | 0.56 µM | FC(F)(F)Cc1cc2c(N3CCC4(CC(Nc5ccc(-c6cn[nH]c6)cc5)C4)C3)ncnc2s1 (single isomer, unassigned) [Compound 327] | IC50 (MOLM14; Homo sapiens, MOLM-14, 192 h): > 3.75 µM
8 | 32.3 nM | 1.76 µM | FC(F)(F)Cc1cc2c(N3CC4(CCC(Nc5ccc(-c6cc[nH]n6)cc5)C4)C3)ncnc2s1 (stereo not shown) [Compound 301] | –
9 | 11 nM | 2.77 µM | O=C1Cc2ccc(N[C@@H]3CCC4(C3)CN(c3ncnc5sc(CC(F)(F)F)cc35)C4)cc2N1 (single isomer, unassigned) [Compound 293] | –
10 | 8.8 nM | 1.26 µM | CNS(=O)(=O)c1ccc(NC2CC3(CCN(c4ncnc5sc(CC(F)(F)F)cc45)C3)C2)cc1 (mixture of isomers) [Compound 316] | –
11 | 94.8 nM | > 3.75 µM | O=c1[nH]c2ccc(N[C@@H]3CCC4(C3)CN(c3ncnc5sc(CC(F)(F)F)cc35)C4)cc2[nH]1 (single isomer, unassigned) [Compound 299] | –

The next lines start with the molecule.

Row | Structure (SMILES) | IC50 (menin; [3]) | IC50 (MV-4-11 [2]; Homo sapiens, MV4-11, 192 h) | also measured
12 | N#CCc1ccc(N[C@H]2CC[C@@]3(CCN(c4ncnc5sc(CC(F)(F)F)cc45)C3)C2)cc1 (stereo in doubt) [Compound 145] | 22.6 nM | – | IC50 (MOLM14; Homo sapiens, MOLM-14, 192 h): > 3.75 µM; IC50 (MV-4-11 [1]): 3.55 µM
13 | CNC(=O)c1ccc(NC2CC3(CCN(c4ncnc5sc(CC(F)(F)F)cc45)C3)C2)cc1NCCN(C)C (mixture of isomers) [Compound 239] | 33.6 nM | – | IC50 (MV-4-11 [1]): > 3.75 µM
14 | CN1CCN(c2cc(NC3CC4(CCN(c5ncnc6sc(CC(F)(F)F)cc56)C4)C3)ccc2C#N)CC1 (mixture of isomers) [Compound 240] | 8.6 nM | – | IC50 (MV-4-11 [1]): 1.14 µM
15 | CN1CCN(Cc2cc(NC3CC4(CCN(c5ncnc6sc(CC(F)(F)F)cc56)C4)C3)ccc2C#N)CC1 (mixture of isomers) [Compound 225] | 22.7 nM | – | IC50 (MV-4-11 [1]): 1.95 µM
16 | CN(C)CC1CC2(CCN(c3ncnc4sc(CC(F)(F)F)cc34)C2)C1 (mixture of isomers) [Compound 196] | 133 nM | 3.91 µM | –
17 | O=S(=O)(NC1CC2(CCN(c3ncnc4sc(CC(F)(F)F)cc34)C2)C1)c1ccccc1 (mixture of isomers) [Compound 22] | 450 nM | 3.55 µM | –
18 | N#CCc1ccc(NC2CC3(CCN(c4ncnc5sc(CC(F)(F)F)cc45)C3)C2)c(Cl)c1 (single isomer, unassigned) [Compound 208] | 37.7 nM | 3.16 µM | –
19 | CNS(=O)(=O)c1ccc(NC2CCC3(C2)CN(c2ncnc4sc(CC(F)(F)F)cc24)C3)cc1 (racemic) [Compound 279] | 82.9 nM | > 3.75 µM | –
20 | Nc1nc(N2CCC3(CC(NCc4ccccc4)C3)C2)c2cc(CC(F)(F)F)sc2n1 (mixture of isomers) [Compound 263] | 47.3 nM | 1.23 µM | –
21 | FC(F)(F)Cc1cc2c(N3CCC4(CC(CNc5ccccc5)C4)C3)ncnc2s1 (stereo not shown) [Compound 38] | 447 nM | 5.21 µM | –
22 | CNC(=O)c1ccc(NC2CC3(CCN(c4ncnc5sc(CC(F)(F)F)cc45)C3)C2)cc1 (single isomer, unassigned) [Compound 95] | 34.6 nM | – | IC50 (MV-4-11 [2]): 1.27 µM; IC50 (MOLM14): 0.82 µM
23 | FC(F)(F)Cc1cc2c(N3CCC4(CC(Nc5ccccc5)C4)C3)ncnc2s1 (mixture of isomers) [Compound 35] | 48.6 nM | 4.9 µM | –
24 | N#CCc1ccc(NC2CC3(CCN(c4nc(N)nc5sc(CC(F)(F)F)cc45)C3)C2)cc1 (mixture of isomers) [Compound 377] | 7.5 nM | 1.12 µM | –
25 | FC(F)(F)Cc1cc2c(N3CC4(CCC(Nc5ccccc5)C4)C3)ncnc2s1 (stereo not shown) [Compound 7] | 658 nM | 13.5 µM | –
26 | FC(F)(F)Cc1cc2c(N3CCC4(CCC(NCc5ccccc5)CC4)C3)ncnc2s1 (single isomer, unassigned) [Compound 2] | 84.5 nM | 1.64 µM | IC50 (menin; location 1, read-out: (2) location 1 Menin HTRF assay (IC50 (nM))): 91.2 nM
27 | CS(=O)(=O)NCCCNC(=O)c1ccc(NC2CC3(CCN(c4ncnc5sc(CC(F)(F)F)cc45)C3)C2)nc1 (single isomer, unassigned) [Compound 275] | 2.4 nM | – | IC50 (MV-4-11 [1]): 1.09 µM
28 | CNC(=O)c1ccc(NC2CC3(CCN(c4nc(NC)nc5sc(CC(F)(F)F)cc45)C3)C2)cc1 (stereo not shown) [Compound 64] | 2.4 nM | 0.14 µM | IC50 (MOLM14; Homo sapiens, MOLM-14, 192 h): 0.92 µM
